Measurements published in EP0983764A1, “PREVENTIVES FOR ISCHEMIC HEART DISEASES” (TAISHO PHARMACEUTICAL CO. LTD, priority 1997, dated 1998).
Like-named read-outs stand apart in the source and are kept apart here. Marks after values point to notes of the source that are not given here.

Columns and labels:
[1] = system: high fat-loading hamsters; assay: Antiarteriosclerotic activity in a model for the treatment of arteriosclerosis in high fat-loading hamsters; type: in vivo, male golden hamsters; details: for Degree of lipid deposition on the arterial wall: 10 weeks, aortic arch, Oil Red O; for Degree of lipid deposition on the arterial wall / Total blood cholesterol: Means ± S.E. (n=5); for Total blood cholesterol: in high fat diet for 10 weeks
Source text: As test animals were used a group of 5 male golden hamsters of 6 weeks (available from Nihon SLC K.K.) Hamsters were fed with the following high fat diet for 10 weeks to prepare a model for arteriosclerosis.
During this period, the compound of the invention was continuously administered to a medicated group, simultaneously with feeding.
After blood collection, the aortic arch was excised and the adventitia was completely stripped off under microscopic observation. The tissue after fixed with 10% neutral buffered formalin was fat-stained with an Oil Red O solution and enclosed in a glycerol-gelatin solution on a slide glass to prepare a tissue preparation.
An area of the fat-stained site (µm^2) and an area of the artery (mm^2) were measured by means of an image analysis system (Adobe Photoshop, Unitimage for the Apple Macintosh) and a ratio of both values was calculated to determine a degree of lipid deposition on the arterial wall.
(§1) A total blood cholesterol level was measured according to an enzyme method (Autosera CHO-2, Daiichi Kagaku Yakuhin K.K.) using an autoanalyzer (Hitachi 7150 type).
The drug was given in admixture with a high fat diet at the concentrations of 0.003% and of 0.03%, and a dose was calculated from the amount of feed ingested and the body weight.
Composition of a high fat diet: A feed for rats MF (available from Oriental Kobo K.K.) to which 10% coconut oil and 0.05% cholesterol were supplemented. (Results)

[2] = system: cholesterol-loading rabbits; assay: Antiarteriosclerotic activity in a model for the treatment of arteriosclerosis in cholesterol-loading rabbits; type: in vivo, rabbits (NZW strain male); details: for inhibition at 3 mg/kg: Oryctolagus cuniculus
Protocol: As test animals were used a group of 10 rabbits previously fed with a 1% cholesterol-enriched feed to develop atherosclerosis (of 5 months, NZW strain male; available from Kitayama RABES K.K.)
A group of rabbits with arteriosclerosis were fed with a normal feed for rabbits RC-4 (available from Oriental Kobo K-K.) for 3 months and then adopted as a control group, while the compound of the invention was orally administered to a medicated group at 3 mg/kg once per day during this period.
After blood collection, the common carotid artery and the aorta were excised and a certain site thereof was fixed with 10% neutral buffered formalin to prepare a slice of the arterial tissue. Elastin elastic fiber-stained preparations were prepared by Elastic Van Gieson (EVG) staining, fat-stained preparations were prepared by Oil Red O staining and smooth muscle-stained preparations were prepared by anti-human α-actin antibody 1A4 staining.
A degree of intimal elastin fibrogenesis and a degree of medium lipid deposition were assessed in terms of 5 scores on elastin-positve and lipid staining-positive intensities (Grade; 0: No changes, 1: Minimum, 2: Mild, 3: Moderate, and 4: Severe). Areas of the intima (I) and of the medium (M) were measured by means of an image analysis system (Adobe Photoshop, Unitimage for the Apple Macintosh) and a ratio of both values (I/M) was calculated.
An elastin density of the fibrous cap in the intimal surface was calculated in terms of a ratio of the elastin-positive area to a given area of the intimal surface. A ratio of the α-actin-positive area to the intimal surface area at a similar site was defined as a smooth muscle density. Cholesterol was extracted from a portion of the excised aorta with a solution of chloroform : methanol (2:1) and was assayed according to an enzyme method (Cholesterol CII-Test WAKO, Free Cholesterol C-TEST WAKO, Wako Pure Chemical Industries, Ltd.)
as §1

[3] = system: hereditary hyperlipemic WHHL rabbits; assay: Antiarteriosclerotic activity in hereditary hyperlipemic WHHL rabbits; type: in vivo; details: for Total cholesterol in the arterial wall: 18 months, aorta; for Total cholesterol in the arterial wall / Total blood cholesterol / Intimal cholesterol deposition / Intimal surface elastin/collagen / Intimal collagen / Intimal elastin / Medium Elastin: Mean ± S.E.; for Total blood cholesterol: in feed over 18 months, at autopsy; for Intimal cholesterol deposition: plaque components in aortic arteriosclerosis; for Intimal cholesterol deposition / Intimal collagen / Intimal elastin / Medium Elastin: score, Grade 0-4; for Intimal surface elastin/collagen: ratio
Source text: The compound of the invention was continuously administered to rabbits of 2 months with hereditary hyperlipemia (WHHL rabbits, available from Kitayama RABES K.K.) over 18 months and then the rabbits were autopsied.
A portion of the aorta was fixed with 10% neutral buffered formalin and then embedded in paraffin or freeze-embedded to prepare a slice of the arterial tissue. The slice was stained with Hematoxylin and Eosin (HE), Elastic Van Gieson (EVG), Azan-Mallory, and Oil Red O. A positive rate was assessed under microscopic observation in terms of 5 scores (Grade; 0: No changes, 1: Minimum, 2: Mild, 3: Moderate, and 4: Severe) to measure changes in components in the arteriosclerotic lesion. For another portion of the aorta, cholesterol was extracted with a solution of chloroform methanol (2:1) and a total cholesterol level in the arterial wall was assayed according to an enzyme method (Cholesterol CII-Test WAKO, Wako Pure Chemical Industries, Ltd.)
A total blood cholesterol level value at the autopsy was measured according to an enzyme method (Autosera CHO-2, Daiichi Kagaku Yakuhin K.K.) using an autoanalyzer (Hitachi 7150 type).
The drug was mixed into a feed for rabbits RC-4 (Oriental Kobo K.K.) at the concentrations of 0.005% and of 0.05%, and the resulting feed was given daily between 9:00 a.m. and 11:30 a.m. while the feed was restricted to 20 g/kg of body weight.

[4] = 3 mg/kg orally once per day, 3 months, aorta
[5] = 3 mg/kg, score, Grade 0: No change to 4: Severe, Mean ± S.E.

SMILES: CCCCCCCCCCCCCCSCC(=O)Nc1c(C(C)C)cccc1C(C)C [Compound of the invention]
- Degree of lipid deposition on the arterial wall ([1]; 1.5 mg/kg): 217.5±40.5* µm^2/mm^2
- Total blood cholesterol ([1]; 1.5 mg/kg): 372.0 ± 35.5 mg/dL
- Degree of lipid deposition on the arterial wall ([1]; 15 mg/kg): 46.2± 8.6** µm^2/mm^2
- Total blood cholesterol ([1]; 15 mg/kg): 231.2 ± 4.9 mg/dL
- inhibition at 1.5 mg/kg ([1]; Mesocricetus auratus, 1.5 mg/kg, vs. control group, read-out: Degree of lipid deposition on the arterial wall Inhibition (%)): 67.3%
- inhibition at 15 mg/kg ([1]; Mesocricetus auratus, 15 mg/kg, vs. control group, read-out: Degree of lipid deposition on the arterial wall Inhibition (%)): 93.1%
- Total blood cholesterol ([2]; 3 mg/kg orally once per day, 3 months): 113.4 ± 38.6 mg/dL
- Degree of intimal thickening in the common carotid artery ([2]; 3 mg/kg orally once per day, 3 months, I/M = Area of the intima/Area of the medium): 0.45±0.18 I/M
- Cholesteryl ester in the arterial wall [2, 4]: 219.1 ± 18.4 mg/g
- Free cholesterol in the arterial wall [2, 4]: 119.1 ± 12.2 mg/g
- Total cholesterol in the arterial wall [2, 4]: 338.2 ± 29.9 mg/g
- Elastin density in the intimal surface ([2]; 3 mg/kg, ratio of elastin-positive area to a given area of the intimal surface): 151±30
- Density of smooth muscle in the intimal surface ([2]; 3 mg/kg, ratio of α-actin-positive area to the intimal surface area): 614±35
- Degree of intimal elastin fibrogenesis [2, 5]: 1.7±0.2
- Degree of medium lipid deposition [2, 5]: 1.2±0.1
- Degree of intimal elastin fibrogenesis Acceleration (%) ([2]; 3 mg/kg, vs. control group): 112.5%
- Density of smooth muscle in the intimal surface Acceleration (%) ([2]; 3 mg/kg, vs. control group): 18.5%
- Elastin density in the intimal surface Acceleration (%) ([2]; 3 mg/kg, vs. control group): 37.0%
- inhibition at 3 mg/kg ([2]; 3 mg/kg, vs. control group, read-out: Cholesteryl ester in the arterial wall Inhibition (%)): 24.1%
- inhibition at 3 mg/kg ([2]; 3 mg/kg, vs. control group, read-out: Degree of intimal thickening in the common carotid artery Inhibition (%)): 55.9%
- inhibition at 3 mg/kg ([2]; 3 mg/kg, vs. control group, read-out: Degree of medium lipid deposition Inhibition (%)): 47.8%
- regressing a degree of intimal thickening ([2]; aortic arch, phase of the complete plaque): no action of regressing a degree of intimal thickening
- Total cholesterol in the arterial wall ([3]; 1 mg/kg): 29.3 ± 4.8 mg/g
- Total blood cholesterol ([3]; 1 mg/kg): 462 ± 13 mg/dL
- Intimal cholesterol deposition ([3]; 1 mg/kg): 2.6±0.2
- Intimal surface elastin/collagen ([3]; 1 mg/kg): 1.26±0.24
- Intimal collagen ([3]; 1 mg/kg): 3.0±0.2
- Intimal elastin ([3]; 1 mg/kg): 1.5±0.2
- Medium Elastin ([3]; 1 mg/kg): 0.93±0.20
- Total cholesterol in the arterial wall ([3]; 10 mg/kg): 32.2 ± 2.6 mg/g
- Total blood cholesterol ([3]; 10 mg/kg): 438 ± 20 mg/dL
- Intimal cholesterol deposition ([3]; 10 mg/kg): 2.2±0.1
- Intimal surface elastin/collagen ([3]; 10 mg/kg): 2.01±0.36
- Intimal collagen ([3]; 10 mg/kg): 3.0±0.1
- Intimal elastin ([3]; 10 mg/kg): 1.8±0.2
- Medium Elastin ([3]; 10 mg/kg): 1.59±0.09
- inhibition at 1 mg/kg ([3]; Oryctolagus cuniculus, 1 mg/kg, vs. control group, read-out: Total cholesterol in the arterial wall Inhibition (%)): 26.4%
- inhibition at 10 mg/kg ([3]; Oryctolagus cuniculus, 10 mg/kg, vs. control group, read-out: Total cholesterol in the arterial wall Inhibition (%)): 19.1%
- action on endothelial cells ([3]; old WHHL rabbit lesion): compacting endothelial cells
